Laboratory results reported in patent US12053473B2, “Benzylamino substituted quinazolines and derivatives as SOS1 inhibitors” (priority 2016, dated 2024).
Where two headings read alike, the source gives them in different places.

Assays:
[1] = test system: KRAS G12C mutant MIA PaCa-2 pancreatic xenograft; type: in vivo, mouse; settings: monotherapy
Procedure: In Vivo Efficacy Experiments
Cultures are incubated at 37° C. and 5% CO2 in a humidified atmosphere, with medium change or subcultivation performed 2-3 times a week. For injection tumor cells are mixed with PBS including 5% FCS and Matrigel in a ratio of 1:1. 1×10EXP7 cells in a volume of 100 μL are injected subcutaneous in each mouse to establish tumors. […] The vehicle control, trametinib, 1-13 or the respective combination is administered intragastrically using a gavage needle at an application volume of 10 mL/kg in a volume of 10 mL/kg per mouse daily twice with a 6 h difference. Trametinib is dissolved in 0.5% DMSO and 0.5% Natrosol. Paclitaxel is formulated in 0.9% NaCl and is applied intravenously once a week at 10 mg/kg in a volume of 10 mL/kg. […]
Standardized irradiated diet (PROVIMI KLIBA) and autoclaved tap water are provided ad libitum. Microchips implanted subcutaneously under isoflurane anesthesia are used to identify each mouse. Cage cards showing the study number, the animal number, the compound and dose level, the administration route as well as the schedule remain with the animals throughout the study. The tumor diameter is measured two-three times a week with a caliper. The volume of each tumor [in mm^3] is calculated according to the formula “tumor volume=length*diameter2*π/6”. To monitor side effects of treatment, mice are inspected daily for abnormalities and body weight is determined daily. Animals are sacrificed at the end of the study. Animals with necrotic tumors or tumor sizes exceeding 1500 mm^3 are sacrificed early during the study for ethical reasons.
All compounds were applied twice daily per os (p.o.).

[2] = test system: phosphorylation of MEK1/2 (Ser217/221) in MIA PaCa-2 cells (KRAS G12C); test: MEK phosphorylation (Western blot) in MIA PaCa-2 cells; type: cell-based, human; settings: MIA PaCa-2, 2D; 25 nM trametinib alone or with 1 μM I-13; 2 h, 4 h, 8 h
From the text: ERK and MEK Phosphorylation to Investigate the Combinatorial Effect of SOS1 Inhibitors with MEK Inhibitors
ERK and MEK phosphorylation assays are also used to investigate combinatorial effects of SOS1 inhibitors with MEK inhibitors, e.g. in MIA PaCa-2 cells.
• 96-well Ultra low binding plates from Corning (CLS2474-24EA); • DMEM (Lonza BE12-604F); • Fetal Bovine Serum (FBS) from HyClone (SH30071.03); • Cell lysate buffer (CLB):10× (Cell Signaling, Cat #9803)
For lysis of the cells a 1.2 fold concentrated CLB is used including the following supplements: 120 μL Cell Lysis Buffer 10×(Cell Signaling, Cat #9803)+870 μL H2O is supplemented with 10 μL HALT Protease & Phosphatase Inhibitor Cocktail (Thermo Scientific, Prod #1861281)+1 μL PMSF Stock sol. (Sigma, Cat #P7626) […]
ImageQuant LAS 4000 is used to induce a Chemilumescence signal that is detected with an Amersham Hyperfilm MP (GE Healthcare, Cat #28906847). […] Band quantification is performed by using the software “Image Quant TL” from GE Health.
MIA PaCa-2 cells are seeded at 1.16×E6 cells per 6 well plate in 2 mL DMEM medium supplemented with 2% FCS in 6 well plates. […] The protein concentration of the cell lysate is quantified by Bradford protein assay according to the manufacturer's instructions. […]
. Cell lysate was generated at the respective timepoints and the effect on ERK or MEK phosphorylation was analysed using Western-blotting. […]

[3] = test system: phosphorylation of ERK1/2 (Thr202/Tyr204) in MIA PaCa-2 cells (KRAS G12C); settings: MIA PaCa-2, 2D; 50 nM trametinib
Procedure: Secondary Antibody (incubated 1 h at room temperature): Use a blocking buffer with a 1:1000 dilution of the anti-Rabbit IgG-HRP (Dako, Cat #P0448)
ECL Western Blotting Detection Reagents (GE Healthcare, Cat #RPN2106)
The film is developed with the device Protec Optimax. Band quantification is performed by using the software “Image Quant TL” from GE Health.
Cells are incubated over night at 37° C. with 5% CO2. The next day inhibitors are added with a HP D300 digital Dispenser. Following addition of the respective inhibitor the 6-well plate is incubated for 24 h, 48 h or 72 h, respectively. At the respective timepoint cells are lysed. […] Following this the lysate is centrifuged (16000 rpm, 4° C. for 15 minutes) and the supernatant is stored at −80° C. and used for subsequent steps. The protein concentration of the cell lysate is quantified by Bradford protein assay according to the manufacturer's instructions. […]

[4] = test system: cleaved PARP in NCI-H358 (KRAS G12C) NSCLC cells; type: cell-based, human; settings: NCI-H358, 3D, 10% serum; 1 μM I-13, 125 nM afatinib, alone or combined; 24 h, 48 h, 72 h
[5] = target: SOS1 and KRAS G12D (protein-protein interaction) (Homo sapiens, UniProt Q07889); test: KRAS::SOS1 AlphaScreen binding assay; settings: read-out: IC50 (SOS1)
How it was run: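 Compounds were tested in duplicate at 11 concentrations (1:5 serial from 100 μM, 1% DMSO). They were preincubated 30 min with final 10 nM KRAS G12D, 10 μM GDP and 5 nM GST-SOS1, then glutathione acceptor and streptavidin donor beads (10 μg/mL each) were added for 60 min at RT in the dark. AlphaScreen signal gave IC50 via 4-parameter logistic fit.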

[6] = assay buffer without EDTA (values not marked with an asterisk)
[7] = assay buffer with 100 μM EDTA (values marked with an asterisk)

Row | SMILES | IC50 [5, 6] [nM] | IC50 [5] [nM] | other results
1 | CC(=O)Nc1cccc(-n2c(=O)n(C3CC3)c(=O)c3c(Nc4ccc(I)cc4F)n(C)c(=O)c(C)c32)c1 [trametinib] |  |  | TGI ([1]; trametinib 0.05 mg/kg twice daily p.o.): 50%; tumor regressions ([1]; trametinib 0.125 mg/kg or 0.05 mg/kg twice daily p.o.): no regressions in any tumors; TGI ([1]; trametinib 0.125 mg/kg twice daily p.o.): 73%; levels of phosphorylated MEK1/2 (Ser 217/221) [2]: increased levels of MEK1/2 (Ser 217/221); reduction of ERK1/2 (Thr 202/Tyr 204) phosphorylation levels compared to untreated control cells [3]: 65-75%
2 | Nc1ccn([C@@H]2O[C@H](CO)[C@@H](O)C2(F)F)c(=O)n1 [gemcitabine] |  |  | TGI ([1]; gemcitabine 50 mg/kg q4d i.p.): 4%
3 | CN(C)C/C=C/C(=O)Nc1cc2c(Nc3ccc(F)c(Cl)c3)ncnc2cc1O[C@H]1CCOC1 [afatinib] |  |  | apoptosis induction (levels of cleaved PARP) [4]: needed 48 h to show apoptosis induction
4 | CC(=O)O[C@H]1C(=O)[C@@]2(C)[C@H]([C@H](OC(=O)c3ccccc3)[C@]3(O)C[C@H](OC(=O)[C@H](O)[C@@H](NC(=O)c4ccccc4)c4ccccc4)C(C)=C1C3(C)C)[C@]1(OC(C)=O)CO[C@@H]1C[C@@H]2O [paclitaxel] |  |  | TGI ([1]; paclitaxel 10 mg/kg q7d i.v., day 22): 62%
5 | Cc1nc(N[C@H](C)c2cc(N)cc(C(F)(F)F)c2)c2cc(O[C@H]3CCOC3)c(C)cc2n1 [I-10] | 7 |  | 
6 | Cc1cccc([C@@H](C)Nc2nc(C)nc3ccc([C@H]4CC[C@H](C(=O)N(C)C)CC4)cc23)c1 [I-264] |  | 13 | 
7 | COc1cc2nc(C)nc(N[C@H](C)c3cc(N)cc(C(F)(F)F)c3)c2cc1-c1cnn(CC(=O)N(C)C)c1 [I-84] |  | 6 | 
8 | Cc1nc(N[C@H](C)c2cccc(Cl)c2F)c2cc(C3=CCNCC3)ccc2n1 [I-170] |  |  | IC50 [5, 7]: 24 nM
9 | COc1cc2nc(C)nc(N[C@H](C)c3cccc(C4(O)COC4)c3)c2cc1O[C@H]1CCOC1 [I-16] | 38 |  | 
10 | Cc1nc(N[C@H](C)c2cccc(Cl)c2)c2cc(C3=CCNCC3)ccc2n1 [I-172] |  |  | IC50 [5, 7]: 39 nM
11 | Cc1nc(N[C@H](C)c2cccc(C(F)(F)F)c2)c2cc(C(C)CC(=O)NC3CC3)c(C)cc2n1 (some centres unmarked) [I-379] |  | 12 | 
12 | Cc1nc(N[C@H](C)c2cccc(C(F)(F)F)c2)c2cc(C3=CCC(C(=O)N(C)C)CC3)ccc2n1 (some centres unmarked) [I-222] |  | 19 | 
13 | Cc1cccc([C@@H](C)Nc2nc(C)nc3c(C)cc(C4CCN(C5CCOC5)CC4)cc23)c1 (some centres unmarked) [I-290] | 28 |  | 
14 | COc1cc2nc(C)nc(N[C@H](C)c3cccc(C4(O)COC4)c3)c2cc1C1=CCN(C(C)=O)CC1 [I-17] | 34 |  | 
15 | Cc1nc(N[C@H](C)c2cc(N)cc(C(F)(F)F)c2)c2cc([C@H]3CC[C@@H](O)CC3)ccc2n1 [I-66] | 43 |  | 
16 | COc1cc2nc(C)nc(N[C@H](C)c3cc(N)cc(C(F)(F)F)c3)c2cc1O[C@H]1CCN(C(C)=O)C1 [I-7] | 3 |  | 
17 | COc1cc2nc(C)nc(N[C@H](C)c3cc(N)cc(C(F)(F)F)c3)c2cc1[C@H]1CC[C@@H](C(=O)N2CCN(C)CC2)CC1 [I-354] |  | 22 | 
18 | CCn1cc(-c2cc3c(N[C@H](C)c4cc(N)cc(C(F)(F)F)c4)nc(C)nc3cc2OC)ccc1=O [I-350] |  | 9 | 
19 | COCC(=O)N1CCC(O)(c2cc3c(N[C@H](C)c4cccc(C(F)(F)F)c4F)nc(C)nc3cc2OC)CC1 [I-46] | 4 |  | 
